Earlier results as cited in US8324185B2, “Composition for the treatment of obesity and hyperlipidemia” (Nucitec, S.A. DF C.V., priority 2004, dated 2012).

What was measured:
[1] = dietary fat
[2] = molecular target: T1, pancreatic lipase (Homo sapiens, UniProt P16233); conditions: in vitro
T1 sequence (P16233 17-465): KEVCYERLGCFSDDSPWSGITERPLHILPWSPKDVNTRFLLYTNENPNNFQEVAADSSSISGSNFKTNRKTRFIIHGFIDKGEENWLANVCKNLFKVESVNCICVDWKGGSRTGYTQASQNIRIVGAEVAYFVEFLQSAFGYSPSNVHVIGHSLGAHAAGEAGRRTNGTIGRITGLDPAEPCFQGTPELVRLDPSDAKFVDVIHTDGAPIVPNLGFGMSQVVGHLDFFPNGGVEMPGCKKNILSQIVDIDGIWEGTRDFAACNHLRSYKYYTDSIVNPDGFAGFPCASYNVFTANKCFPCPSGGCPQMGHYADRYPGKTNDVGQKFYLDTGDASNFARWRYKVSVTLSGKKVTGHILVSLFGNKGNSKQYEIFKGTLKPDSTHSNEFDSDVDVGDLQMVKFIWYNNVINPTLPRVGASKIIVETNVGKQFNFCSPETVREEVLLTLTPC

| Structure (SMILES) | pK value of the amino group | reduction in fat absorption from the diet [1] [%] | inhibition of pancreatic lipase activity [2] |
| --- | --- | --- | --- |
| NCCCC[C@H](N)C(=O)O [lisine] | ~9 | – | – |
| CCCCCCCCCCC[C@@H](C[C@@H]1OC(=O)[C@H]1CCCCCC)OC(=O)[C@H](CC(C)C)NC=O [orlistat] | – | 30 | fully inhibits |
